Experimental data from article PMC12865225 (Clinical and Translational Science, 2026).
pIC50: −log10 of the molar value.

Target: T1, OATP1B1 (Homo sapiens, UniProt Q9Y6L6)
T1 construct: expressed in transfected cells; host or cells: HEK293 (recombinant baculovirus-mediated transduction)
T1 sequence (Q9Y6L6 1-691): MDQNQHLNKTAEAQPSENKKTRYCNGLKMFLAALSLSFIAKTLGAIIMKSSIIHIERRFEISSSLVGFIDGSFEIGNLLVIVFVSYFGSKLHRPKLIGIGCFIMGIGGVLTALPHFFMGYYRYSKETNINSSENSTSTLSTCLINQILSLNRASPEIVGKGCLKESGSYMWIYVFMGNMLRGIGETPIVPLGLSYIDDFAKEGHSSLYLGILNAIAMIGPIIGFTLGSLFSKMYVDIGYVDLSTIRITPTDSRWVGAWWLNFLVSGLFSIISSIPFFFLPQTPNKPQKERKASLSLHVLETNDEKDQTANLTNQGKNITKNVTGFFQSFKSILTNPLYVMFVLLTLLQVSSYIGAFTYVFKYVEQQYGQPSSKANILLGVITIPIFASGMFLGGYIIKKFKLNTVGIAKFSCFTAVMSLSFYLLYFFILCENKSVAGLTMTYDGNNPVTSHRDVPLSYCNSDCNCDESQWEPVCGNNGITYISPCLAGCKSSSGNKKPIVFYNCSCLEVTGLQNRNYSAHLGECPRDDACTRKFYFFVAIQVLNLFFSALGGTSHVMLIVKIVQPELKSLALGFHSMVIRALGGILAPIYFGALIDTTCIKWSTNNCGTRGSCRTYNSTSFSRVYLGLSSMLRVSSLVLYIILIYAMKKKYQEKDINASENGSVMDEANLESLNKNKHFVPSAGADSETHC
Test: OATP1B1 inhibition with fluorescent substrate 2′,7′-dichlorofluorescein in HEK293 cells
Type: cell-based
Settings: 1 µM 2′,7′-dichlorofluorescein, 30 min preincubation
Protocol: 8- (2- [Fluoresceinyl]aminoethylthio)adenosine- 3', 5'- cyclic monophosphate (8-Fluo-cAMP) was acquired from Biolog Life Science Institute (Bremen, Germany), 4′,5′-dibromofluorescein was acquired from Sigma-Aldrich (St. Louis, MO, USA) and 2′,7′-dichlorofluorescein was acquired from Santa Cruz Biotechnology (Dallas, TX, USA).
Inhibition studies with fluorescent substrates in OATP transduced HEK293 cells The concentrations of fluorescent probe substrates were 1 µM 2′,7′-dichlorofluorescein for OATP1B1, 2.5 µM 8-Fluo-cAMP for OATP1B3 and 1 µM 4′,5′-dibromofluorescein for OATP2B1, and these concentrations were selected to be within or below of previously reported […]
reported linear ranges of transport for these substrate-transporter combinations.1,2,4 8-Fluo-cAMP was dissolved in ultrapure water, while dimethyl sulfoxide (DMSO) was used for all other compounds. […] For the quantification of fluorescent substrates, cells were lysed with 120 µl of lysis solution (1% Triton X-100, 5 mM EDTA, 150 mM sodium chloride and 150 mM TRIC-hydrochloride and adjusted to pH 8 with sodium hydroxide) for 30 min at 300 RPM shaking before transferring 80 µl of samples to a transparent 96-well plate containing 20 µl of 0.5 M sodium hydroxide. […] The plates were measured with a fluorescent plate reader (Varioskan LUX from ThermoFisher Scientific). […]

## Cc1onc(-c2c(Cl)cccc2Cl)c1C(=O)N[C@@H]1C(=O)N2[C@@H]1SC(C)(C)[C@@H]2C(=O)O [Dicloxacillin]
human, HEK293 cells transduced to express OATP1B1, pH 7.4, probe 2′,7′-dichlorofluorescein 1 µM
  IC50 at 5 min: 3.59 µM

## Cc1onc(-c2c(F)cccc2Cl)c1C(=O)N[C@@H]1C(=O)N2[C@@H]1SC(C)(C)[C@@H]2C(=O)O [Flucloxacillin]
5 min
  pIC50: 5.03
